Literature values in patent US7060710B2, “Isoxazole pyrazoloindane derivatives as cognition enhancing GABAA α5 subtype ligands” (Merck Sharp & Dohme Ltd., priority 2001, dated 2006).

Experiments:
[1] = reported by McNamara and Skelton
[2] = background statement

Question: With `COC(=O)c1cc2c(cn1)[nH]c1ccccc12` [β-CCM] as the molecule, how does the “spatial learning in the Morris watermaze” value [1] read?
Answer: enhanced spatial learning

Question: What about the proconvulsant activity [2] of the same molecule?
Answer: proconvulsant
